Key:
[1] = cited from earlier work
[2] = Stress tests in simulated GI tract media (SGF and SIF), observed under PLM; type: physicochemical
Experimental: For stress testing in media, solids of aEGCG and the dispersions were suspended in SGFs and SIFs (see Example 6), and the suspensions were observed under polarized light microscope from time to time to look for the evidence of birefringence and extinction (B/E) of the materials, which is the indication of the occurrence of crystallization in a material.
Polarized light microscopy (PLM) was performed using a Leica DM LP microscope with cross polarizer. SEM was performed using a FEI Quanta 200 scanning electron microscope equipped with an Everhart Thornley (ET) detector. Images were collected and analyzed using xTm (v. 2.01) and XT Docu (v. 3.2) software, respectively. The thermogravimetric analyses (TGA) were performed using a TA Instruments Q5000 IR thermogravimetric analyzer. Each sample was placed in an aluminum sample pan and inserted into the TGA furnace. The furnace was first equilibrated at 25° C., and then heated under N2 at a rate of 10° C./min, up to a final temperature of 350° C. Modulated differential scanning calorimetry (mDSC) data were obtained on a TA Instruments Q2920 differential scanning calorimeter equipped with a refrigerated cooling system (RCS). The test was progressed by modulating temperature±0.8° C. every 60 seconds from 0 to 180° C. The reported glass transition temperature (Tg) is obtained from the inflection point of the step change in the reversing heat flow versus temperature curve.
Solids were suspended in media including simulated gastric fluid (SGF) and simulated intestinal fluid (SIF), and observed under PLM from time to time up to 24 hours for evidence of crystallization indicative by the appearance of birefringence/extinctions. Because of the high solubility of aEGCG, more materials were suspended into the media compared with the dispersions.

[3] = values as low as; rodents and humans; cited from earlier work
[4] = Dissolution test in pH 7.4 PBS at 37° C.; type: physicochemical; conditions: for Release of EGCG in the first 20 minutes: 20 mg EGCG equivalent in 100 mL; for Visible solids during dissolution test: up to 24 hours
Experimental: As an initial proposition, the dispersions, aEGCG and cEGCG were modeled with respect to pseudo-second order models according to equation 1 where t is time, Q is cumulative release, and Qe the final release and, and k2 the rate constant of pseudo-second order kinetics.
Dissolution testing was performed in 100 mL of standard phosphate-buffered salines (pH 7.4) at 37° C. in a jacketed beaker. The temperature was precisely controlled by a Julabo Heating Circulator. EGCG concentration in the solution was in-situ monitored via an Ocean Optics USB2000+UV-VIS spectrometer equipped with an RT-2MM Dip Probe. The testing was performed with continuous stirring until all solids were dissolved and the medium was free of observable particles, or up to 24 hours. For early period of dissolution, the data acquisition density was relatively large to capture all sudden changes; while at later periods, the data acquisition frequency was reduced due to slow evolution in the medium. For each material, an equivalency of 20 mg EGCG was tested and the experiment was monitored until all solids were dissolved or up to 24 hours. Based on the dissolution data, all EGCG (˜20 mg) were released into the medium within the period of dissolution tests for all samples.

[5] = Stability of dispersions of varying weight ratios, about 40° C./75% RH/30 days; type: physicochemical
Experimental: For the four polymers identified, further stress tests were carried out on dispersions with varying weight ratios of EGCG to polymer as set forth in Example 8. In these experiments, stressing was done for 30 days at 75% relative humidity at 40° C. for 30 days. FIGS. 50-63 are the XRPD patterns of the prepared dispersions prior to stressing. FIGS. 75-78 are the XRPD patterns after stressing and these too show the samples to amorphous by XRPD. FIGS. 82, 83, and 85 show a peak indicative of NaCl, which is used in the salt both of the humidity chamber storing the samples. Thus, such a peak is not indicative of any crystalline EGCG in the corresponding dispersions. […] Based on the XRPD results, the post-stressing dispersions were x-ray amorphous (other than the NaCl peaks).
20 capsules of Teavigo™ were broken and the solids were suspended in ˜300 mL HPLC grade water and filtered to remove the solids. The resultant solution was clear with no evidence of solid particles observed. The solution was then dried under N2 purge until water is fully removed based on visual observation. Such generated EGCG solids were directly used for generating amorphous EGCG and solid dispersions.
EGCG solid dispersions were prepared by lyophilization using four polymers including HPMC-AS, HPMC-P, Soluplus®, and cellulose acetate. Individual solutions of polymer (in dioxane) and EGCG (in water) were prepared. The EGCG aqueous solution was added into the polymer-dioxane solution slowly. Additional fresh dioxane were added into the samples followed by vigorous vortexing to reach a clear solution without visible solids or colloids.
For lyophilization, each EGCG/polymer solution was frozen in a cold bath of dry ice/acetone (at a temperature of −78° C.). The sample vial was then kept in a lyophilizer at −30° C. for 1 day, −10° C. for 2 days, 0° C. for 1 day, and then 20° C. for 4 hours. Pure EGCG aqueous solution was lyophilized as well to generate amorphous EGCG (EGCG) as a reference material for comparison with the dispersions. The lyophilized materials are free flowing materials.

[6] = Stress test at about 40° C./75% RH for 11 days; type: physicochemical
Experimental: The physical stability of aEGCG and the four dispersions were evaluated at different conditions including a typical stress condition of 40° C./75% RH for 11 days, and in media of SGF and SIF for 24 h. Table 1 summarizes the visual observations on the materials after they have been stressed at 40° C./75% RH for 11 days. The aEGCG became a hard material after stress, while all the dispersions were particles or soft aggregates.
XRPD patterns were collected with a PANalytical X'Pert PRO MPD diffractometer using an incident beam of Cu radiation produced using an Optix long, fine-focus source. An elliptically graded multilayer mirror was used to focus Cu Kα X-rays through the specimen and onto the detector. Prior to the analysis, a silicon specimen (NIST SRM 640e) was analyzed to verify the observed position of the Si 111 peak is consistent with the NIST-certified position. A specimen of the sample was sandwiched between 3-μm-thick films and analyzed in transmission geometry. A beam-stop, short antiscatter extension, and antiscatter knife edge were used to minimize the background generated by air. Soller slits for the incident and diffracted beams were used to minimize broadening from axial divergence. Diffraction patterns were collected using a scanning position-sensitive detector (X'Celerator) located 240 mm from the specimen and Data Collector software v. 2.2b. […]

Observations under PLM in SGF ([2]; simulated gastric fluid, up to 24 h, B/E = birefringence/extinction, indicates crystallization) | Observations under PLM in SIF ([2]; simulated intestinal fluid, up to 24 h, B/E = birefringence/extinction, indicates crystallization) | Release profile (in words) [4] | Release of EGCG in the first 20 minutes [4] | Visible solids during dissolution test [4] | XRPD of post-stressing solids ([5]; 40° C./75% RH, 30 days) | Color after stress ([5]; 40° C./75% RH, 30 days, visual observation) | Color as generated ([5]; before stress, visual observation) | Time to crystallization in SGF ([2]; suspended in SGF, PLM) [min] | Time to crystallization in SIF ([2]; suspended in SIF, PLM) [min] | Visual observation after stress [6] | XRPD of post-stress samples [6] | Compound | Share present in plasma in free form ([1]; Manach et al. 2005) | Improvement in bioavailability ([1]; coadministration of piperine, Lambert et al. 2004) [%] | Bioavailability [3]
B/E observed in 15 min | B/E observed in 15 min |  |  |  |  |  |  |  |  |  |  | O=C(O[C@@H]1Cc2c(O)cc(O)cc2O[C@@H]1c1cc(O)c(O)c(O)c1)c1cc(O)c(O)c(O)c1 [EGCG, epigallocatechin gallate] | 77-90% | 30 | 2-5%
 |  | immediate dissolution | ~100% | dissolved without visible solids | converted to crystalline EGCG | pink | very light pink, | ≤ 15 | ≤ 15 | pink hard material, agg | highly crystalline material | O=C(O[C@@H]1Cc2c(O)cc(O)cc2O[C@@H]1c1cc(O)c(O)c(O)c1)c1cc(O)c(O)c(O)c1 [aEGCG, epigallocatechin gallate] |  |  | 
 |  |  | approximately 93% | dissolved without visible solids |  |  |  |  |  |  |  | O=C(O[C@@H]1Cc2c(O)cc(O)cc2O[C@@H]1c1cc(O)c(O)c(O)c1)c1cc(O)c(O)c(O)c1 [cEGCG, epigallocatechin gallate] |  |  | 

— patent publication US20200323815A1, “AMORPHOUS DISPERSIONS OF EPIGALLOCATECHIN GALLATE” (AMRI SSCI, LLC, priority 2017, published 2020)
